Reference: patent US11517568B2, “Compounds and methods for treating nematode infections” (The Governing Council of The University of Toronto, priority 2018, dated 2022)
Read-outs that look alike come from different tables or passages of the source.

What was measured:
wild type C. elegans = test: Manual monitoring of locomotion phenotype of wild type C. elegans on solid agar containing the small molecule; format: in vivo, Caenorhabditis elegans; settings: for locomotory phenotype induced: solid agar substrate
Description: The ability of the 64 Egl hits to modulate the normal sinusoidal locomotion of wild type C. elegans was then examined. The animal's behaviour over the course of several hours was manually monitored while the animal moved atop a solid agar substrate containing the small molecule. Many different genes govern the sinusoidal locomotion of wild type C. elegans, but their mutation can lead to qualitatively distinct locomotory phenotypes.

[1] = system: wild type fourth-stage C. elegans larvae (L4s); test: Locomotory defects (coiled and/or paralysis) in wild type fourth-stage C. elegans larvae on solid substrate; format: in vivo, Caenorhabditis elegans; settings: for Activity (%): percent of animals that show coiled and/or paralysis: 60 μM, after 60 min on solid substrate, L4 C. elegans
Experimental: A preliminary first round of SAR analyses using analogs of exemplary compound Ia was performed and the analogs' ability to induce locomotory defects in wild type fourth-stage C. elegans larvae (L4s) was tested.
If phenotype is observed, a dose-response analysis is performed.

[2] = system: UNC-17 (VAChT), unc-17 mutant strains; format: in vivo, Caenorhabditis elegans; settings: p=0.001
L3 animals = test: Abnormal locomotory behaviour of L3 animals on solid agar (extended SAR); format: in vivo, Caenorhabditis elegans; settings: for pest or weed control at 3.75 µM / pest or weed control at 15 µM / pest or weed control at 60 µM: Caenorhabditis elegans; for % any phene 1 h (conc.) 3.75 / % any phene 6 h (conc.) 3.75 / % any phene 24 h (conc.) 3.75: 3.75 uM; for % any phene 1 h (conc.) 3.75 / % any phene 1 h (conc.) 15 / % any phene 1 h (conc.) 60: 1 h exposure; for % any phene 1 h (conc.) 3.75 / % any phene 6 h (conc.) 3.75 / % any phene 24 h (conc.) 3.75 / % any phene 1 h (conc.) 15 / % any phene 6 h (conc.) 15 / % any phene 24 h (conc.) 15 / % any phene 1 h (conc.) 60 / % any phene 6 h (conc.) 60 / % any phene 24 h (conc.) 60: L3, mean of 4 replicates; for % any phene 6 h (conc.) 3.75 / % any phene 6 h (conc.) 15 / % any phene 6 h (conc.) 60: 6 h exposure; for % any phene 24 h (conc.) 3.75 / % any phene 24 h (conc.) 15 / % any phene 24 h (conc.) 60: 24 h exposure; for % any phene 1 h (conc.) 15 / % any phene 6 h (conc.) 15 / % any phene 24 h (conc.) 15: 15 uM; for % any phene 1 h (conc.) 60 / % any phene 6 h (conc.) 60 / % any phene 24 h (conc.) 60: 60 uM
Experimental: 20 animals were scored after either 1, 6 or 24 hours of exposure to drug (as indicated) per replicate. […] Data are reported as the mean % of animals with abnormal phenotype over 4 independent replicates.

C. elegans [3] = test: Forward genetic screens for mutants resisting early larval lethal effects; format: in vivo, Caenorhabditis elegans; settings: over 200,000 F1 and over 100,000 F2 animals screened
Experimental: Forward genetic screens were performed for mutants that can resist the early larval lethal effects of compound Ic and compound Id. Over 200,000 F1 animals and over 100,000 F2 animals from randomly mutagenized parents/grandparents were screened.

fish = test: Dose-response analysis in fish, cardiac defects; format: in vivo
C. elegans [4] = test: Suppression of aldicarb-induced paralysis in C. elegans; format: in vivo; settings: Caenorhabditis elegans
Experimental: Whether exemplary compound Ia can suppress the paralysis that is induced by aldicarb was tested. Aldicarb inhibits acetylcholinesterase, which normally catabolizes ACh at the synaptic cleft. […] Aldicarb treatment therefore results in excess ACh and paralyzes the animal due to excess muscle contraction. If exemplary compound Ia inhibits UNC-17 and results in lower levels of ACh at the synaptic cleft, then exemplary compound Ia should reduce aldicarb-induced paralysis.

HEK293 cells = test: HEK293 cell proliferation, Celltiter Blue Cell Viability Assay; format: cell-based; settings: dose-response, 48 hours, triplicates
Experimental: A cytotoxic formulation was used as positive control. Experiments were performed in triplicates on different days. […] Error bars indicate standard deviation.

[5] = 1 h, read-out: % any phene 1 h (conc.) 3.75
[6] = 1 h, read-out: % any phene 1 h (conc.) 15
[7] = 1 h, read-out: % any phene 1 h (conc.) 60
[8] = 6 h, read-out: % any phene 6 h (conc.) 3.75
[9] = 6 h, read-out: % any phene 6 h (conc.) 15
[10] = 6 h, read-out: % any phene 6 h (conc.) 60
[11] = 24 h, read-out: % any phene 24 h (conc.) 3.75
[12] = 24 h, read-out: % any phene 24 h (conc.) 15
[13] = 24 h, read-out: % any phene 24 h (conc.) 60

SMILES	locomotory phenotype induced (wild type C. elegans)	Activity (%): percent of animals that show coiled and/or paralysis [1]	pest or weed control at 3.75 µM (L3 animals; [5]) [%]	pest or weed control at 15 µM (L3 animals; [6]) [%]	pest or weed control at 60 µM (L3 animals; [7]) [%]	pest or weed control at 3.75 µM (L3 animals; [8]) [%]	pest or weed control at 15 µM (L3 animals; [9]) [%]	pest or weed control at 60 µM (L3 animals; [10]) [%]	pest or weed control at 3.75 µM (L3 animals; [11]) [%]	pest or weed control at 15 µM (L3 animals; [12]) [%]	pest or weed control at 60 µM (L3 animals; [13]) [%]	% any phene 1 h (conc.) 3.75 (L3 animals) [%]	% any phene 6 h (conc.) 3.75 (L3 animals) [%]	% any phene 24 h (conc.) 3.75 (L3 animals) [%]	% any phene 1 h (conc.) 15 (L3 animals) [%]	% any phene 6 h (conc.) 15 (L3 animals) [%]	% any phene 24 h (conc.) 15 (L3 animals) [%]	% any phene 1 h (conc.) 60 (L3 animals) [%]	% any phene 6 h (conc.) 60 (L3 animals) [%]	% any phene 24 h (conc.) 60 (L3 animals) [%]	further results
O[C@@H]1CCCC[C@H]1N1CCC(c2ccccc2)CC1 (racemic) [Vesamicol, reference compound]	jerky-unc and coiling, but only at concentrations close to its limit of solubility	6% +/− 0.1	0	0	11.7	0	0.8	1.7	0	0	0	–	–	–	–	–	–	–	–	–	sensitivity of unc-17(md414) (C370Y) mutant [2]: partially resistant
O=[N+]([O-])c1ccc(N2CCN(CC3CC4C=CC3C4)CC2)cc1 (stereo not drawn) [Compound Id]	‘jerky-unc’ phenotype	0.00%	–	–	–	–	–	–	–	–	–	19.2	5.8	0.0	65.5	36.7	45.0	95.8	100.0	95.8	mutants resisting early larval lethal effects (C. elegans [3]): No mutants that could resist the lethal effects
O=[N+]([O-])c1ccc(N2CCN(CC3CC=CCC3)CC2)cc1 (stereo not drawn) [Ie]	‘severe’ snake-like coiler phenotype and paralysis	19% +/− 8.0	–	–	–	–	–	–	–	–	–	15.0	0.0	0.0	45.0	56.7	0.0	94.2	80.8	57.5	cardiac defects in fish (fish): strongest cardiac defects
O=[N+]([O-])c1ccc(N2CCN(CC3CCCCC3)CC2)cc1 [Compound Ia]	–	90% +/− 5.4	42.5	91	100	22.5	64.2	100	0	34.2	80	–	–	–	–	–	–	–	–	–	EC50 (C. elegans [4]): 4.81 µM; cardiac defects in fish (fish): weakest cardiac defects; effect on HEK293 cell proliferation (HEK293 cells): no effect; potency for inducing locomotory defects in worms relative to vesamicol (wild type C. elegans; compared with vesamicol): more than 30 times; EC50 ([1]; Caenorhabditis elegans, read-out: EC50 (coiled and/or paralysis, dose-response)): 12.8 µM
